Experimental data taken from patent publication US7189518B2, “Soluble CD40L(CD154) as a prognostic marker of atherosclerotic diseases” (The Brigham and Women's Hospital, Inc., priority 2001, dated 2007).

What was measured:
Format in all cases: cell-based
human vascular EC and MØ = test: RT-PCR of CD40 and CD40L mRNA expression in cultured human vascular cells
Method: (§1) Human vascular EC and SMC were isolated from saphenous veins and cultured as described previously.^4,26 Mononuclear phagocytes (MØ) were isolated from leukocyte concentrates by density gradient centrifugation employing Lymphocyte Separation Medium (Organon-Teknika, Durham, N.C.) and were cultured (10 days) in RPMI 1640 (BioWhittaker, Walkersville, Md.) containing 2% human serum (Sigma; St. Louis, Mo.).^26 All cell types were cultured 24 h before and during the experiment in media lacking serum. Viability of the cultures was determined by trypan blue (Sigma, St. Louis, Mo.) exclusion count as well as an oligonucleosome formation assay (Cell Death Detection ELISA, Boehringer Mannheim, Germany).
Total RNA isolated from cultured EC, SMC, or MØ employing RNAzol (Tel-Test; Friendswood, Tex.) was assessed for purity and yield spectrophotometrically (2100 Bioanalyzer, Agilent Technologies, Wilmington, Del.) and was reverse-transcribed (2 μg total RNA; 50 min, 42° C.) employing Superscript II Reverse Transcriptase (LifeTechnologies, Carlsbad, Calif.). PCR was performed for 35 cycles at 95° C. (120 sec), 62° C. (120 sec), and 72° C. […] PCR products were analyzed on ethidium bromide-containing 1.3% agarose gels and visualized by UV transillumination. […]

[1] = test system: human vascular EC, SMC, and MØ; test: Western blot of CD40 and CD40L protein expression in cultured human vascular cells; settings: for Concentration required to reduce CD40/CD40L expression: higher than for cerivastatin
Method: Viability of the cultures was determined by trypan blue (Sigma, St. Louis, Mo.) exclusion count as well as an oligonucleosome formation assay (Cell Death Detection ELISA, Boehringer Mannheim, Germany).
Culture lysates (50 μg total protein/lane) and supernatants were separated by SDS-PAGE and blotted to polyvinylidene difluoride membranes (Bio-Rad, Hercules, Calif.) using a semi-dry blotting apparatus (3 mA/cm^2, 30 min; Bio-Rad, Hercules, Calif.). Blots were blocked and primary (mouse-anti-human CD40 or CD40L; both 1:1,000; PharMingen, San Diego, Calif.) antibodies were added in 5% defatted dry milk/PBS/0.1% Tween 20. After 1 h, blots were washed three times (PBS/0.1% Tween 20) and secondary, peroxidase-conjugated, goat-anti-mouse antibody (Jackson Immunoresearch, West Grove, Pa.) was added (1 h). Finally, blots were washed and immunoreactive proteins were visualized using the Western blot chemiluminescence system (NEN™, Boston, Mass.). Data were verified by employing anti-CD40/-CD40L antibodies from Santa Cruz (Santa Cruz, Calif.).

[2] = test system: human vascular EC, as well as MØ; test: Flow cytometry of CD40 and CD40L cell surface expression
Method: as §1
Human vascular EC, SMC, or MØ were washed with ice-cold PBS, harvested by trypsinization, and fixed (PBS/4% paraformaldehyde, 15 min). Subsequently, the cells were washed once with PBS/2% BSA before being incubated (1 h, 4° C.) with either buffer alone or FITC-conjugated control IgG, mouse-anti-human CD40, or mouse-anti-human CD40L antibody (1 μg/ml; PharMingen, San Diego, Calif.). Finally, cells were washed with PBS/2% BSA and analyzed in a Becton Dickinson FACSCAN® flow cytometer employing […]® software (Becton Dickinson; San Jose, Calif.). At least 20,000 viable cells per condition were analyzed.

## CC(O)(CCO)CC(=O)O (centres unmarked) [Mevalonate]
Human vascular EC and MØ
  Effect on the expression of CD40 and CD40L transcripts diminished by statins: reversed
[1]; protein, Western blot
  Effect on the expression of CD40 and CD40L diminished by statins: reversed

## CC(C)c1c(C(=O)Nc2ccccc2)c(-c2ccccc2)c(-c2ccc(F)cc2)n1CC[C@@H](O)C[C@@H](O)CC(=O)O [atorvastatin]
[2]
  Order of the statins by concentration needed for equal reduction in CD40/CD40L expression: cerivastatin>simvastatin=atorvastatin
[1]; Western blot
  Concentration required to reduce CD40/CD40L expression: 100 nM
[1]; human vascular EC, SMC, and MØ, summary in the discussion, also covers RT-PCR
  Constitutive as well as cytokine-induced expression of CD40 and CD40L protein and transcript: significantly diminished

## COCc1c(C(C)C)nc(C(C)C)c(/C=C/[C@@H](O)C[C@@H](O)CC(=O)O)c1-c1ccc(F)cc1 [cerivastatin]
[1]; EC, Western blot
  Concentration at which the constitutive as well as IL-1β/TNFα/IFNγ-induced expression of the receptor (CD40) was diminished: > 2 nM
  Concentration for maximal inhibition of CD40 expression: 10 to 50 nM

## CCC(C)(C)C(=O)O[C@H]1C[C@@H](C)C=C2C=C[C@H](C)[C@H](CC[C@@H]3C[C@@H](O)CC(=O)O3)[C@H]21 [simvastatin]
[1]; Western blot
  Concentration required to reduce CD40/CD40L expression: 100 nM
